From US20210060016A1, “ANTICANCER AGENT” (JAPANESE FOUNDATION FOR CANCER RESEARCH, priority 2017, published 2021)

Key:
[1] = biological target: T1, tankyrase-2 (Homo sapiens, UniProt Q9H2K2); experiment: X-ray diffraction of tankyrase-2 crystal soaked with the compound; type: binding
T1 sequence (Q9H2K2 1-1166): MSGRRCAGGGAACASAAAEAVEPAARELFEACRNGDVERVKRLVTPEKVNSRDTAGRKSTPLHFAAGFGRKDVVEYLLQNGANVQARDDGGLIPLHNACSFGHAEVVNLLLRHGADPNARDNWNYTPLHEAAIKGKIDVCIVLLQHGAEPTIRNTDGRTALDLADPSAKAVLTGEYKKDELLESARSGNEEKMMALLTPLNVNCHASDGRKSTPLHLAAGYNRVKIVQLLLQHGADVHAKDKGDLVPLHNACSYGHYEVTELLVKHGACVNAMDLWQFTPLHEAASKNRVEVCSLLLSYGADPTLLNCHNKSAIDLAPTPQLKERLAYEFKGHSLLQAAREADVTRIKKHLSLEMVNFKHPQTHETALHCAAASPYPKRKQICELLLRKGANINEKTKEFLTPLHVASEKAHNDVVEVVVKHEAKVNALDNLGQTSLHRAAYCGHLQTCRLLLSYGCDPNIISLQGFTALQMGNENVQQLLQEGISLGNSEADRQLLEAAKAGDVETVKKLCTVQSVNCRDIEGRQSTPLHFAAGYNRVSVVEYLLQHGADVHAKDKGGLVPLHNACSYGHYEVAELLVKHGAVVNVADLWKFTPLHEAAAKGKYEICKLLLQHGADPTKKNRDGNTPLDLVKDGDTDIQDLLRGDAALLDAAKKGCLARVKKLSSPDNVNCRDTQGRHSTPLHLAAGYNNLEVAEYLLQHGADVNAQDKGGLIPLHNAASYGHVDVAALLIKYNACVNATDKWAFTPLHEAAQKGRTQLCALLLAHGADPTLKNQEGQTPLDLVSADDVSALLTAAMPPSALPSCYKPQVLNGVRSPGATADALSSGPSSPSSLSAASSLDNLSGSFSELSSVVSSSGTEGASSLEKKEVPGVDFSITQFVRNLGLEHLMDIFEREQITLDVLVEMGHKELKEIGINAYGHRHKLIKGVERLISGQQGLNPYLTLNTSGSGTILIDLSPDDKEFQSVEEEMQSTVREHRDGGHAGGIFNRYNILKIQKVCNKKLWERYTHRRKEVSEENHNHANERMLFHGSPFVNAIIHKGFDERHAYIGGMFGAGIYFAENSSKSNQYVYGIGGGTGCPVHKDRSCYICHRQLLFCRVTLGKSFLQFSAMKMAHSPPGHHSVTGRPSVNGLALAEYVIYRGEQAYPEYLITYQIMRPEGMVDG
Excerpt: In the present invention, whether the tankyrase inhibitory compound is a nicotinamide-type compound or an adenosine-type compound can be determined by X-ray diffraction, more specifically a method in which a complex is crystallized from a mixed liquid of a tankyrase crystal prepared beforehand and the tankyrase inhibitory compound, and subjected to X-ray diffraction (soaking method), or a method in which a complex is crystallized from a mixed liquid having the tankyrase inhibitory compound coexisting with tankyrase in a state before the crystallization, and subjected to X-ray diffraction (co-crystallization). Whether the tankyrase inhibitory compound is a dual-type compound can be determined by preparing a crystal under any one of the above-described conditions, and performing X-ray diffraction.
X-ray diffraction data of a tankyrase-2 crystal soaked with the compound prepared in Compound Example 1 was measured with BL26B2 Beam Line in a large synchrotron radiation facility Spring-8 (Sayo-gun, Hyogo). The wavelength of the X-ray was 1.000 Å, and MX-225 (Rayonix, LLC) was used as a detector. The diffraction data was treated with XDS (Kabsch, 2010) and the CCP4 program (Winn et al., 2011).

[2] = test system: human colorectal cancer cell line COLO-320DM; experiment: MTT assay, combination of test compound and other anticancer agents; type: cell-based
Description: The ratio of residual cells in treatment of the human colorectal cancer cell line COLO-320DM with a combination of the compound prepared in each Compound Example (test compound or tankyrase inhibitory compound) and each of the anticancer agents was measured to evaluate the cell killing effect of the combination on the human colorectal cancer cell line COLO-320DM. The combinations of test compounds and anticancer agents are as follows.
(Example 8): combination of the compound prepared in Compound Example 5 and temozolomide, melphalan, gemcitabine, cytarabine (Ara-C), fluorouracil (5-FU), pemetrexed, mercaptopurine, methotrexate, irinotecan (SN-38), etoposide (VP-16), actinomycin D, daunorubicin, doxorubicin, bleomycin, mitoxantrone, oxaliplatin, carboplatin or cisplatin (Example 9): combination of the compound prepared in Compound Example 110 (G007-LK) and irinotecan (SN-38) (Example 10): combination of the compound prepared in Compound Example 11 and irinotecan (SN-38) (Example 11): combination of the compound prepared in Compound Example 19 and irinotecan (SN-38) (Example 12): combination of the compound prepared in Compound Example 101 and irinotecan (SN-38) (Example 13): combination of the compound prepared in Compound Example 1 and irinotecan (SN-38) (Example 14): combination of the compound prepared in Compound Example 113 and irinotecan (SN-38)
Commercially available compounds were used for temozolomide (manufactured by Sigma-Aldric), melphalan (manufactured by Signa-Aldrich), gemcitabine (Gemcitabine hydrochloride; manufactured by Sigma-Aldric), cytarabine (Cytosine β-D-arabinofuranoside (Ara-C); manufactured by Sigma-Aldrich), fluorouracil (5-Fluorouracil (5-FU); manufactured by Sigma-Aldrich), pemetrexed (Pemetrexed disodium heptahydrate; manufactured by Sigma-Aldrich), mercaptopurine (6-Mercaptopurine monohydrate; manufactured by Sigma-Aldrich), methotrexate (Methotrexate hydrate; manufactured by Sigma-Aldrich), irinotecan (7-Ethyl-10-hydroxycamptothecin (SN-38); manufactured by Sigma-Aldrich), etoposide (Etoposide (VP-16); manufactured by Enzo Life Sciences, Inc.), actinomycin D (manufactured by nacalai tesque), daunorubicin (Daunorubicin hydrochloride; Calbiochem), doxorubicin (Doxorubicin hydrochloride; manufactured by Sigma-Aldrich), bleomycin (Bleomycin sulfate; manufactured by Enzo Life Sciences, Inc.), mitoxantrone (Mitoxantrone dihydrochloride; manufactured by Sigma-Aldrich), oxaliplatin (manufactured by Sigma-Aldrich), carboplatin (manufactured by Sigma-Aldrich) and cisplatin (manufactured by Enzo Life Sciences, Inc.).
First, the human colorectal cancer cell line COLO-320DM was suspended in RPMI1640 medium (hereinafter, medium) containing inactivated 10% fetal bovine serum, and the cells were seeded in a 96-well microplate at 350 cells (75 μL) per well. The cells were subjected to stationary culture overnight in a CO2 incubator at 37° C. Thereafter, in Example 8, a medium (25 μL) containing a combination of the compound prepared in Compound Example 5 and each of the anticancer agents was added in triplicate in such a manner that the final concentrations of the test compound (compound prepared in Compound Example 5) were 0 nM or 30 nM and that the final concentrations of each anticancer agent were those shown in Table 14. In Examples 9 to 14, a medium (25 μL) containing a combination of the compound prepared in each of Compound Examples and each of the anticancer agents was added in triplicate in such a manner that the final concentrations of the test compound were 0 nM or those shown in FIGS. 9 to 14. As a control, 25 μL of a medium containing only dimethyl sulfoxide (DMSO) which is a solvent was added. […]

[3] = Examples 9 to 14, COLO-320DM: test compound added at the concentration shown in FIGS. 9 to 14 to irinotecan (SN-38), survival with only irinotecan = 100%

Compound | binding pocket type by X-ray diffraction [1] | cell survival rate [2, 3] | cell survival rate ([2]; Example 8, COLO-320DM: test compound further added at 30 nM to each anticancer agent (temozolomide ... cisplatin), survival with only the anticancer agent = 100%)
O=c1[nH]c(N2CCC3(CC2)CN(CCO)c2cc(F)cc(F)c23)nc2c1CCCC2 [compound 1, 2-[4,6-Difluoro-1-(2-hydroxyethyl)spiro [indolin-3,4′-piperidin]-1′-yl]-5,6,7,8-tetrahydroquinazolin-4(3H)-one] | nicotinamide-type compound which binds to the nicotinamide binding pocket of tankyrase | about 50% | –
CN1CCCc2c1nc(N1CCC3(CC1)C(=O)N(C)c1cc(N4CCC(C(=O)O)CC4)cc(F)c13)[nH]c2=O [compound 11, 1-[4-Fluoro-1-methyl-1′-(8-methyl-4-oxo-3,4,5,6,7,8-hexahydropyrido [2,3-d]pyrimidin-2-yl)-2-oxospiro[indolin-3,4′-piperidin]-6-yl]piperidin-4-carboxylic acid] | – | about 50% | –
C[C@@H]1CN(c2cc(F)c3c(c2)N(C)C(=O)C32CCN(c3nc4c(c(=O)[nH]3)CCCN4C)CC2)C[C@H](C)O1 [compound 19] | – | about 50% | –
CN1CCN(c2cc(F)c3c(c2)N(C)C(=O)C32CCN(c3nc4c(c(=O)[nH]3)CCCN4C)CC2)CC1 [compound 5, 4-Fluoro-1-methyl-1′-(8-methyl-4-oxo-3,4,5,6,7,8-hexahydropyrido [2,3-d]pyrimidin-2-yl)-6-(4-methylpiperazin-1-yl)spiro [indolin-3,4′-piperidin]-2-one] | – | – | about 50%
